Results from PubChem BioAssay AID248 (DTP/NCI, 2004).
Several values for one entry are separate records, joined by “and”; a condition that tells them apart may be missing. Equal entries are not always repeated. Inconclusive results and toxic doses are left out. Cut-off read from the data, not from the text of the source: active = T/C of 150% or more; inactive = T/C below 125%.

Tested on: L1210 leukemia ip in BDF1 mice, survival T/C
Experiment: NCI In Vivo Anticancer Drug Screen. Data for tumor model L1210 Leukemia (intraperitoneal) in B6D2F1 (BDF1) mice
Details: endpoint: mean survival time, higher = longer survival
How it was run: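 Transplanted-tumor mice were given test agent; controls received vehicle only. Survival readings from the two groups were divided (treated over control).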

[1] = dose: 100.0 mg/kg/injection, schedule: Q01DX009 (ip), vehicle: saline with Tween-80
[2] = dose: 200.0 mg/kg/injection, schedule: Q01DX009 (ip), vehicle: saline with Tween-80
[3] = dose: 400.0 mg/kg/injection, schedule: Q01DX009 (ip), vehicle: saline with Tween-80
[4] = dose: 50.0 mg/kg/injection, schedule: Q01DX001 (ip), vehicle: saline
[5] = dose: 100.0 mg/kg/injection, schedule: Q01DX001 (ip), vehicle: saline
[6] = dose: 200.0 mg/kg/injection, schedule: Q01DX001 (ip), vehicle: saline
[7] = dose: 400.0 mg/kg/injection, schedule: Q01DX001 (ip), vehicle: saline
[8] = dose: 100.0 mg/kg/injection, schedule: Q01DX009 (ip), vehicle: saline
[9] = dose: 100.0 mg/kg/injection, schedule: Q04DX003 (ip), vehicle: saline
[10] = dose: 200.0 mg/kg/injection, schedule: Q01DX009 (ip), vehicle: saline
[11] = dose: 200.0 mg/kg/injection, schedule: Q04DX003 (ip), vehicle: saline
[12] = dose: 100.0 mg/kg/injection, schedule: Q01DX009 (ip), vehicle: Klucel (hydroxypropylcellulose) (HPC)
[13] = dose: 100.0 mg/kg/injection, schedule: Q04DX003 (ip), vehicle: Klucel (hydroxypropylcellulose) (HPC)
[14] = dose: 200.0 mg/kg/injection, schedule: Q01DX009 (ip), vehicle: Klucel (hydroxypropylcellulose) (HPC)
[15] = dose: 200.0 mg/kg/injection, schedule: Q04DX003 (ip), vehicle: Klucel (hydroxypropylcellulose) (HPC)
[16] = dose: 400.0 mg/kg/injection, schedule: Q01DX009 (ip), vehicle: Klucel (hydroxypropylcellulose) (HPC)
[17] = dose: 400.0 mg/kg/injection, schedule: Q04DX003 (ip), vehicle: Klucel (hydroxypropylcellulose) (HPC)
[18] = dose: 100.0 mg/kg/injection, schedule: Q04DX003 (ip), vehicle: saline with Tween-80
[19] = dose: 50.0 mg/kg/injection, schedule: Q04DX003 (ip), vehicle: saline
[20] = dose: 50.0 mg/kg/injection, schedule: Q01DX009 (ip), vehicle: saline
[21] = dose: 25.0 mg/kg/injection, schedule: Q01DX009 (ip), vehicle: Klucel (hydroxypropylcellulose) (HPC)
[22] = dose: 50.0 mg/kg/injection, schedule: Q01DX009 (ip), vehicle: Klucel (hydroxypropylcellulose) (HPC)

Measured: T/C

COc1ccc(NC(=S)N(C)C)cc1
inactive: [1] 98 % of control | [2] 110 % of control | [3] 98 % of control

O=C(Nc1ccccc1C(F)(F)F)OCCSc1ccc(Cl)cc1
inactive: [1] 95 % of control | [2] 95 % of control | [3] 93 % of control

Nc1cncnc1
inactive: [4] 112 % of control | [5] 107 % of control | [6] 98 % of control | [7] 102 % of control

CC12CCCC(=O)C1CC/C(=C\c1ccco1)C2=O (configuration not stated)
inactive: [8] 109 % of control | [9] 102 % of control | [10] 98 % of control | [11] 104 % of control | dose: 400.0 mg/kg/injection, schedule: Q01DX009 (ip), vehicle: saline 114 % of control | dose: 400.0 mg/kg/injection, schedule: Q04DX003 (ip), vehicle: saline 104 % of control

Cc1ccc(S(=O)(=O)Oc2ccc(C(C)(C)c3ccc(OS(=O)(=O)c4ccc(C)cc4)cc3)cc2)cc1
inactive: [4] 98 % of control | [5] 93 % of control | [12] 96 % of control | [13] 93 % of control | [6] 93 % of control | [14] 91 % of control | [15] 95 % of control | [7] 90 % of control | [16] 91 % of control | [17] 98 % of control

CC(Cl)(/N=N/C(C)(Cl)c1cccc(Cl)c1)c1ccc(Cl)cc1 (configuration not stated)
inactive: [18] 94 % of control

C=CCCCCCCCCC(=O)NCC1CC1
inactive: [18] 98 % of control | dose: 200.0 mg/kg/injection, schedule: Q04DX003 (ip), vehicle: saline with Tween-80 92 % of control | dose: 400.0 mg/kg/injection, schedule: Q04DX003 (ip), vehicle: saline with Tween-80 88 % of control

CCCCCCCCC1CCC(N)CC1 (configuration not stated)
inactive: [12] 95 % of control | [13] 95 % of control | [14] 93 % of control | [15] 101 % of control | [17] 98 % of control

CCN(CC)CC(=O)NCC(CCCCN1CCCCC1)(c1cccc2ccccc12)C(C)C (configuration not stated)
inactive: dose: 12.5 mg/kg/injection, schedule: Q04DX003 (ip), vehicle: saline 104 % of control | dose: 25.0 mg/kg/injection, schedule: Q04DX003 (ip), vehicle: saline 102 % of control | [19] 102 % of control

c1ccc(P2(c3ccccc3)=NP(c3ccccc3)(c3ccccc3)=NP(c3ccccc3)(c3ccccc3)=N2)cc1
inactive: [20] 89 % of control | [8] 86 % of control | [10] 88 % of control

CCC(c1ccc2cc(OC)ccc2c1)C(C)(C)C(=O)F (configuration not stated)
inactive: dose: 25.0 mg/kg/injection, schedule: Q01DX009 (ip), vehicle: saline 94 % of control | dose: 31.3 mg/kg/injection, schedule: Q01DX Z (sc), vehicle: steriod suspending solution 107 % of control | dose: 50.0 mg/kg/injection, schedule: Q01DX001 (ip), vehicle: steriod suspending solution 98 % of control | [20] 100 % of control | dose: 62.5 mg/kg/injection, schedule: Q01DX Z (sc), vehicle: steriod suspending solution 110 % of control | dose: 100.0 mg/kg/injection, schedule: Q01DX001 (ip), vehicle: steriod suspending solution 96 % of control | dose: 100.0 mg/kg/injection, schedule: Q04DX003 (ip), vehicle: acetone 94 % of control | dose: 125.0 mg/kg/injection, schedule: Q01DX Z (sc), vehicle: steriod suspending solution 108 % of control | dose: 250.0 mg/kg/injection, schedule: Q01DX Z (sc), vehicle: steriod suspending solution 108 % of control

CCCCN(C(=O)CCl)C(C)(C)C(SSC(c1ccc(Cl)cc1)C(C)(C)N(CCCC)C(=O)CCl)c1ccc(Cl)cc1 (configuration not stated)
inactive: dose: 12.5 mg/kg/injection, schedule: Q01DX009 (ip), vehicle: Klucel (hydroxypropylcellulose) (HPC) 96 % of control | [21] 101 % of control | [22] 96 % of control

O=[n+]1c2c(n([O-])c3ccccc31)-c1cccc3cccc-2c13
inactive: [19] 96 % of control | [5] 88 % of control | [9] 93 % of control | dose: 125.0 mg/kg/injection, schedule: Q01DX Z (ip), vehicle: methylcellulose (MC) 98 % of control | [6] 94 % of control | [11] 93 % of control

CCCCCCC(OC(C)=O)OC(C)=O
inactive: dose: 222.0 mg/kg/injection, schedule: Q01DX Z (ip), vehicle: saline 101 % of control | dose: 333.0 mg/kg/injection, schedule: Q01DX Z (ip), vehicle: saline 103 % of control | dose: 500.0 mg/kg/injection, schedule: Q01DX Z (ip), vehicle: saline 104 % of control

Cc1ccc(NNC(=O)C(O)C(O)C(O)C(O)CO)cc1 (configuration not stated)
inactive: [20] 92 % of control | [8] 96 % of control | [10] 100 % of control

CCOC(=O)c1ccc(N2C(N)=NC(N)=NC2(C)C)cc1
inactive: [9] 101 % of control

OCn1c(O)c2ccccc2c1N=Nc1ccccc1
inactive: [5] 95 % of control | [6] 95 % of control | [7] 95 % of control

Oc1ccc(O)c2[nH]c(-c3ccc(Cl)cc3)cc12
inactive: dose: 25.0 mg/kg/injection, schedule: Q04DX002 (ip), vehicle: Klucel (hydroxypropylcellulose) (HPC) 94 % of control | dose: 50.0 mg/kg/injection, schedule: Q04DX002 (ip), vehicle: Klucel (hydroxypropylcellulose) (HPC) 100 % of control | dose: 100.0 mg/kg/injection, schedule: Q04DX002 (ip), vehicle: Klucel (hydroxypropylcellulose) (HPC) 100 % of control

Cc1cc(C)c(NC(=O)c2c(Cl)c(Cl)c(Cl)c(Cl)c2C(=O)O)c(C)c1
inactive: [21] 102 % of control | [22] 105 % of control | [12] 94 % of control and 116 % of control

COc1cc2c(cc1OC)N(S(=O)(=O)c1ccc(C)cc1)CCCC2=O
inactive: [12] 96 % of control | [13] 96 % of control | [14] 91 % of control | [15] 93 % of control | [16] 93 % of control | [17] 102 % of control

N#CCC(O)(c1ccccc1)c1ccccc1
inactive: [4] 102 % of control | [5] 98 % of control | [6] 98 % of control | [7] 104 % of control

N#CCCN1CCC(=O)c2ccccc21
inactive: [5] 101 % of control | [6] 98 % of control | [7] 101 % of control

CC1(C)N=C(N)N=C(N)N1c1cccc(C(=O)c2ccccc2)c1
inactive: dose: 25.0 mg/kg/injection, schedule: Q01DX001 (ip), vehicle: saline with Tween-80 98 % of control | dose: 50.0 mg/kg/injection, schedule: Q01DX001 (ip), vehicle: saline with Tween-80 90 % of control

O=C(CCCC(=O)N/N=C/c1ccc(C(=O)O)cc1)N/N=C\c1ccc(C(=O)O)cc1
inactive: [4] 104 % of control | [5] 102 % of control | [6] 98 % of control | [7] 98 % of control

COC(=O)CCC(NC(=O)c1ccc(NCc2cnc3nc(N)n(C)c(=O)c3n2)cc1)C(=O)OC (configuration not stated)
inactive: dose: 100.0 mg/kg/injection, schedule: Q01DX001 (ip), vehicle: saline with Tween-80 106 % of control | dose: 200.0 mg/kg/injection, schedule: Q01DX001 (ip), vehicle: saline with Tween-80 104 % of control | dose: 400.0 mg/kg/injection, schedule: Q01DX001 (ip), vehicle: saline with Tween-80 101 % of control
